Measurements reported in paper PMC11684019, “Unveiling the Antimycobacterial Potential of Novel 4-Alkoxyquinolines: Insights into Selectivity, Mechanism of Action, and In Vivo Exposure” (Journal of Medicinal Chemistry, 2024).
In brackets after ≈: the same amount, converted by molar mass. Where two headings read alike, the source gives them in different places.

Experiments:
[1] = system: M. tuberculosis H37Rv strain; experiment: microbe, parasite or virus in culture; type: cell-based, Mycobacterium tuberculosis
HepG2 cells [2] = settings: read-out: CC50 HepG2; MTT method, 72 h
[3] = system: M. tuberculosis strain PT2 (MDR clinical isolate); type: cell-based, Mycobacterium tuberculosis
[4] = system: M. tuberculosis strain PT20 (MDR clinical isolate); type: cell-based, Mycobacterium tuberculosis
Vero cells [5] = settings: read-out: CC50 Vero; Neutral Red method, 72 h
HepG2 cells [6] = settings: read-out: CC50 HepG2; Neutral Red method, 72 h
Vero cells [7] = settings: read-out: CC50 Vero; MTT method, 72 h
[8] = system: M. tuberculosis strain PT12 (MDR clinical isolate); type: cell-based, Mycobacterium tuberculosis
[9] = Aqueous solubility (UHPLC-DAD); settings: 25 °C, 4 h; for Solubility pH 1.2: 0.1 M HCl solution; for Solubility pH 9.1: 0.1 M NH4HCO3 solution; for Solubility pH 7.4: PBS
[10] = system: M. tuberculosis H37Rv strain in murine macrophage RAW 264.7 cells; type: cell-based, Mycobacterium tuberculosis
in vitro = settings: PAMPA, pH 7.4
Mtb = settings: cited from earlier work
[11] = M. tuberculosis H37Rv, resazurin-based assay

For “4-Bromo-N-(3-((6-methoxy-2-methylquinolin-4-yl)oxy)propyl)aniline [8d]”, the MIC [1, 11] was 0.10 µM, the CC50 (HepG2 cells [2]) was 15.3 µM and the “MIC PT2” value [3] was less than 0.05 µM. The “MIC PT20” value [4] was less than 0.05 µM, the CC50 (Vero cells [5]) was 12.8 µM and the CC50 (HepG2 cells [6]) was 16.8 µM. The CC50 (Vero cells [7]) was greater than 20 µM and the “MIC PT12” value [8] was less than 0.05 µM.
In the case of “4-Ethyl-N-(3-((6-methoxy-2-methylquinolin-4-yl)oxy)propyl)aniline [8i]”, the MIC [1, 11] is reported as 0.06 µM, the CC50 (HepG2 cells [2]) is reported as 0.3 µM and the “MIC PT2” value [3] is reported as less than 0.06 µM. The “MIC PT20” value [4] was less than 0.06 µM, the CC50 (Vero cells [5]) was 4.2 µM and the CC50 (HepG2 cells [6]) was 8.1 µM. For the same compound, the CC50 (Vero cells [7]) was less than 1 µM and the “MIC PT12” value [8] was less than 0.06 µM.
With “4-Iodo-N-(3-((6-methoxy-2-methylquinolin-4-yl)oxy)propyl)aniline [8e]” the MIC [1, 11] was 0.09 µM, the CC50 (HepG2 cells [2]) was 10.6 µM and the “MIC PT2” value [3] was less than 0.05 µM. The “MIC PT20” value [4] was less than 0.05 µM, the CC50 (Vero cells [5]) was 7.5 µM and the CC50 (HepG2 cells [6]) was 12.8 µM. The CC50 (Vero cells [7]) was 8.2 µM and the “MIC PT12” value [8] was less than 0.05 µM.
`COc1ccc2nc(C)cc(OCCCNc3ccccc3)c2c1` [8a, N-(3-((6-methoxy-2-methylquinolin-4-yl)oxy)propyl)aniline] showed an MIC [1, 11] of 0.25 µM (≈ 0.0806 µg/mL).
For `COc1ccc2nc(C)cc(OCCCNc3ccc(F)cc3)c2c1` [8b, 4-Fluoro-N-(3-((6-methoxy-2-methylquinolin-4-yl)oxy)propyl)aniline], the MIC [1, 11] was 0.47 µM (≈ 0.16 µg/mL).
For `COc1ccc2nc(C)cc(OCCCNc3ccc(Cl)cc3)c2c1` [8c, 4-Chloro-N-(3-((6-methoxy-2-methylquinolin-4-yl)oxy)propyl)aniline], the MIC [1, 11] was 0.22 µM (≈ 0.0785 µg/mL).
`COc1ccc2nc(C)cc(OCCCNc3ccc(C(F)(F)F)cc3)c2c1` [8f, N-(3-((6-methoxy-2-methylquinolin-4-yl)oxy)propyl)-4-(trifluoromethyl)aniline] showed an MIC [1, 11] of 3.20 µM (≈ 1.25 µg/mL).
For `COc1ccc2nc(C)cc(OCCCNc3ccc(OC(F)(F)F)cc3)c2c1` [8g, N-(3-((6-methoxy-2-methylquinolin-4-yl)oxy)propyl)-4-(trifluoromethoxy)aniline], the MIC [1, 11] was 0.20 µM (≈ 0.0813 µg/mL).
In the case of `COc1ccc2nc(C)cc(OCCCNc3ccc(C)cc3)c2c1` [8h, N-(3-((6-methoxy-2-methylquinolin-4-yl)oxy)propyl)-4-methylaniline], the MIC [1, 11] is reported as 0.24 µM (≈ 0.0807 µg/mL).
`COc1ccc2nc(C)cc(OCCCNc3ccc(C(C)C)cc3)c2c1` [8j, 4-Isopropyl-N-(3-((6-methoxy-2-methylquinolin-4-yl)oxy)propyl)aniline] gave an MIC [1, 11] of 0.11 µM (≈ 0.0401 µg/mL).
`Cc1cc(OCCCNc2ccc(Cl)cc2)c2cc(Cl)ccc2n1` [8k, 4-Chloro-N-(3-((6-chloro-2-methylquinolin-4-yl)oxy)propyl)aniline] showed an MIC [1, 11] of 0.22 µM (≈ 0.0795 µg/mL).
`Cc1cc(OCCCNc2ccc(OC(F)(F)F)cc2)c2cc(Cl)ccc2n1` [8m, N-(3-((6-Chloro-2-methylquinolin-4-yl)oxy)propyl)-4-(trifluoromethoxy)aniline] gave an MIC [1, 11] of 0.19 µM (≈ 0.0781 µg/mL).
In the case of `CCc1cc(OCCCNc2ccc(Cl)cc2)c2cc(Cl)ccc2n1` [8o, 4-Chloro-N-(3-((6-chloro-2-ethylquinolin-4-yl)oxy)propyl)aniline], the MIC [1, 11] is reported as 0.11 µM (≈ 0.0413 µg/mL).
Work on `CCc1cc(OCCCNc2ccc(Br)cc2)c2cc(Cl)ccc2n1` [8p, 4-Bromo-N-(3-((6-chloro-2-ethylquinolin-4-yl)oxy)propyl)aniline] yielded an MIC [1, 11] of 0.38 µM (≈ 0.16 µg/mL).
`CCc1ccc(NCCCOc2cc(CC)nc3ccc(Cl)cc23)cc1` [8q, N-(3-((6-chloro-2-ethylquinolin-4-yl)oxy)propyl)-4-ethylaniline] showed an MIC [1, 11] of 0.22 µM (≈ 0.0812 µg/mL).
In the case of `Cc1cc(OCCCNc2ccc(Cl)cc2)c2cc(Br)ccc2n1` [8r, N-(3-((6-bromo-2-methylquinolin-4-yl)oxy)propyl)-4-chloroaniline], the MIC [1, 11] is reported as 0.10 µM (≈ 0.0406 µg/mL), the CC50 (HepG2 cells [2]) is reported as greater than 20 µM and the “MIC PT2” value [3] is reported as less than 0.05 µM. The “MIC PT20” value [4] was less than 0.05 µM, the “Solubility pH 1.2” value [9] was >2,470 μM and the “Solubility pH 9.1” value [9] was 57.18 μM. For the same compound, the “Solubility pH 7.4” value [9] was 15.0 μM, the CC50 (Vero cells [5]) was 11.2 µM and the CC50 (HepG2 cells [6]) was greater than 20 µM. The CC50 (Vero cells [7]) was 19.8 µM and the “MIC PT12” value [8] was less than 0.05 µM.
With `Cc1cc(OCCCNc2ccc(Br)cc2)c2cc(Br)ccc2n1` [8s, 4-Bromo-N-(3-((6-bromo-2-methylquinolin-4-yl)oxy)propyl)aniline] the MIC [1, 11] was 0.35 µM (≈ 0.158 µg/mL).
`CCc1cc(OCCCNc2ccc(Cl)cc2)c2cc(Br)ccc2n1` [8u, N-(3-((6-bromo-2-ethylquinolin-4-yl)oxy)propyl)-4-chloroaniline] gave an MIC [1, 11] of 0.19 µM (≈ 0.0798 µg/mL).
Work on `CCc1cc(OCCCNc2ccc(Br)cc2)c2cc(Br)ccc2n1` [8v, 4-Bromo-N-(3-((6-bromo-2-ethylquinolin-4-yl)oxy)propyl)aniline] yielded an MIC [1, 11] of 0.34 µM (≈ 0.158 µg/mL).
With `NNC(=O)c1ccncc1` [INH, isoniazid, reference compound] the MIC ([1]; Mycobacterium tuberculosis, H37RV) was 2.3 µM (≈ 0.315 µg/mL), the “Kind of effect on intracellular growth of M. tuberculosis H37Rv” value [10] was “bactericidal effect” and the “Log10 CFU/well (Mean ± SD)” value [10] was 2.25 ± 0.15 ^c^, ^d Log10 CFU/well. The “Log10 CFU/well (Mean ± SD)” value ([10]; listed as isoniazid) was 2.25.
With `CCc1nc2ccc(Cl)cn2c1C(=O)NCc1ccc(N2CCC(c3ccc(OC(F)(F)F)cc3)CC2)cc1` [Q203, telacebec, reference compound] the MIC ([1]; Mycobacterium tuberculosis, M. tuberculosis H37Rv, resazurin-based assay) was 0.009 µM (≈ 0.00501 µg/mL).
`C=CCc1ccccc1OCC(O)CNC(C)C` (stereo not shown) [alprenolol] showed a Papp at 5 h, 10 µM (in vitro) of 4.1 ×10⁻⁶ cm/s.
In the case of `COc1ccc2nc(C)cc(OCC(=O)Nc3ccccc3OC)c2c1` [compound 1], the “MIC (Mtb)” value (Mtb) is given as 0.44 µM (≈ 0.155 µg/mL).
For `COc1ccc2nc(C)cc(OCC(=O)Nc3ccc4ccccc4c3)c2c1` [compound 2], the “MIC (Mtb)” value (Mtb) is listed as 0.05 µM (≈ 0.0186 µg/mL).
For `CCCc1ccc(NC(=O)COc2cc(C)nc3ccc(OC)cc23)cc1` [compound 3], the “MIC (Mtb)” value (Mtb) is given as 0.05 µM (≈ 0.0182 µg/mL).
For `COc1ccc2nc(C)cc(OCc3ccc(Cl)c(Cl)c3)c2c1` [compound 4], the “MIC (Mtb)” value (Mtb) is listed as 0.3 µM (≈ 0.104 µg/mL).
In the case of `COc1ccc2nc(C)cc(OCC(=O)c3cccc(Cl)c3)c2c1` [compound 5], the “MIC (Mtb)” value (Mtb) is given as 1.8 µM (≈ 0.615 µg/mL).
In the case of “N-(3-((6-Chloro-2-methylquinolin-4-yl)oxy)propyl)-4-ethylaniline [8n]”, the MIC [1, 11] is reported as 0.03 µM, the “MIC PT2” value [3] is reported as less than 0.06 µM and the “MIC PT20” value [4] is reported as less than 0.06 µM. The “Solubility pH 1.2” value [9] was 200 μM, the “Solubility pH 9.1” value [9] was 0.37 μM and the “Solubility pH 7.4” value [9] was 0.06 μM. The “MIC PT12” value [8] was less than 0.06 µM.
In the case of “N-(3-((6-bromo-2-ethylquinolin-4-yl)oxy)propyl)-4-ethylaniline [8w]”, the MIC [1, 11] is reported as 0.10 µM, the CC50 (HepG2 cells [2]) is reported as greater than 20 µM and the “MIC PT2” value [3] is reported as less than 0.05 µM. The “MIC PT20” value [4] was less than 0.05 µM, the CC50 (Vero cells [5]) was 9.1 µM and the CC50 (HepG2 cells [6]) was 8.3 µM. The CC50 (Vero cells [7]) was greater than 20 µM and the “MIC PT12” value [8] was less than 0.05 µM.
